From PMC11969009 (Nature Communications, 2025)
Several values for one entry are separate records, joined by “and”; a condition that tells them apart may be missing. Identical values can stand only once. Like-named read-outs stand apart in the source and are kept apart here.

Legend:
[1] = tested on: SARS-CoV-2 clinical isolate VIC001; experiment: microbe, parasite or virus in culture; format: cell-based
SARS-CoV-2 P21 = tested on: SARS-CoV-2 P21; design: species or system C57BL/6 (WT) mice; conditions: mouse, in vivo
HKU1 PLpro = HKU1 PLpro (Human coronavirus HKU1, UniProt P0C6X2); experiment: biochemical; format: biochemical; design: inhibition of HKU1 PLpro, UbRh dose-response replicate value: unit: %
USP21 = USP21 (Homo sapiens, UniProt Q9UK80); format: biochemical
NL63 PL2pro = NL63 PL2pro (Human coronavirus NL63, UniProt P0C6X5); experiment: biochemical; design: inhibition of NL63 PL2pro, UbRh dose-response replicate value: unit: %
SARS-CoV PLpro = SARS-CoV PLpro (Severe acute respiratory syndrome coronavirus, UniProt P0C6X7); experiment: biochemical; design: inhibition of SARS-CoV PLpro, UbRh dose-response replicate value: unit: %
OC43 PLpro = OC43 PLpro (Human coronavirus OC43, UniProt P0C6X6); format: biochemical; design: unit not given here
MERS-CoV PLpro = MERS-CoV PLpro (Middle East respiratory syndrome-related coronavirus, UniProt K9N7C7); format: biochemical; design: unit: %
SARS-CoV-2 PLpro = SARS-CoV-2 PLpro (Severe acute respiratory syndrome coronavirus 2, UniProt P0DTD1); experiment: biochemical
229E PL2pro = 229E PL2pro (Human coronavirus 229E, UniProt P0C6X1); experiment: biochemical; design: inhibition of 229E PL2pro, UbRh dose-response replicate value: unit: %

Q: Which results are given for `CO/N=C(/c1ccc2cc(OC)ccc2c1)[C@@H]1CCCN([C@H]2CC[C@@H](O)CC2)C1` [WEHI P4]?
A: Ext Data Fig 2f dose response (0 µM = 100) ([1]; concentration 0.01 µM): 109.2308 and 92.5900 and 114.0845 and 104.0541 and 89.7436; Ext Data Fig 2f dose response (0 µM = 100) ([1]; concentration 0.02 µM): 101.5385 and 95.0600 and 95.7746 and 97.2973 and 106.4103; Ext Data Fig 2f dose response (0 µM = 100) ([1]; concentration 0.04 µM): 107.6923 and 74.0700 and 95.7746 and 91.8919 and 82.0513; Ext Data Fig 2f dose response (0 µM = 100) ([1]; concentration 0.08 µM): 93.8462 and 80.2500 and 109.8592 and 101.3514 and 93.5897; Ext Data Fig 2f dose response (0 µM = 100) ([1]; concentration 5 µM): 0.0000

Q: How did the “Log2 Fold change IL-4” value (SARS-CoV-2 P21) turn out when `CCO/N=C(/c1ccc2cc(OC)ccc2c1)[C@@H]1CCCN([C@H]2CC[C@@H](O)CC2)C1` [P8-100] was run?
A: The value was -0.18.

Q: And the “Log2 Fold change IL-9” value (SARS-CoV-2 P21)?
A: The value was -6.78.

Q: With `CCO/N=C(/c1ccc2cc(OC)ccc2c1)[C@@H]1CCCN([C@H]2CC[C@@H](O)CC2)C1` [P8-150] as the molecule, how does the “Log2 Fold change IL-12p70” value (SARS-CoV-2 P21) read?
A: Its value is -2.36.

Q: How did the “inhibition of HKU1 PLpro, UbRh dose-response replicate value” (HKU1 PLpro) turn out when `CO/N=C(/c1ccc2cc(OC)ccc2c1)[C@@H]1CCCN([C@H]2CC[C@@H](c3cc[nH]n3)CC2)C1` [WEHI-P70] was run?
A: Its value is -6.039 and -6.635 and 8.689 and -11.8697 and -9.542 and -8.165 and -7.3684 and -16.402.

Q: And the “inhibition of HKU1 PLpro, UbRh dose-response replicate value” (HKU1 PLpro; Conc 98 µM)?
A: Its value is -3.115 and -4.878 and -6.077 and -8.873.

Q: And the “selectivity over USP21” value (USP21)?
A: The value was “selective over USP21”.

Q: And the IC50 (NL63 PL2pro)?
A: The IC50 was 648 nM.

Q: And the “inhibition of NL63 PL2pro, UbRh dose-response replicate value” (NL63 PL2pro)?
A: The value was 96.5311 and 98.0786 and 97.1472 and 94.6147 and 95.7019 and 95.1407.

Q: And the “NL63 PL2pro, UbRh hCoV Pan Activity dose-response” value (NL63 PL2pro; Conc 3.63 µM)?
A: The value was 86.4411 and 86.623 and 87.2454 and 84.6973.

Q: And the “inhibition of NL63 PL2pro, UbRh dose-response replicate value” (NL63 PL2pro; Conc 98 µM)?
A: The value was 98.2213 and 99.4112 and 98.0123.

Q: What about the inhibition at 98 µM (NL63 PL2pro; Conc 98 µM, read-out: inhibition of NL63 PL2pro, UbRh dose-response replicate value) of the same molecule?
A: Its inhibition at 98 µM is 98.4%.

Q: And the inhibition at […] (NL63 PL2pro; read-out: inhibition of NL63 PL2pro, UbRh dose-response replicate value)?
A: The inhibition at […] was 97.7% and 95.1%.

Q: And the IC50 (SARS-CoV PLpro)?
A: Its IC50 is 94 nM.

Q: And the “inhibition of SARS-CoV PLpro, UbRh dose-response replicate value” (SARS-CoV PLpro)?
A: The value was 98.7016 and 99.911 and 99.674 and 98.9699 and 100.405 and 100.228.

Q: What about the “SARS-CoV PLpro, UbRh hCoV Pan Activity dose-response” value (SARS-CoV PLpro; Conc 0.0149 µM) of the same molecule?
A: Its value is 11.412 and 10.2397 and 10.016 and 11.8574.

Q: What about the “SARS-CoV PLpro, UbRh hCoV Pan Activity dose-response” value (SARS-CoV PLpro; Conc 0.0448 µM) of the same molecule?
A: Its value is 31.6247 and 32.2323 and 27.9576 and 29.7371.

Q: And the “SARS-CoV PLpro, UbRh hCoV Pan Activity dose-response” value (SARS-CoV PLpro; Conc 3.63 µM)?
A: Its value is 97.8161 and 97.4695 and 97.9055 and 98.3366.

Q: What about the “inhibition of SARS-CoV PLpro, UbRh dose-response replicate value” (SARS-CoV PLpro; Conc 98 µM) of the same molecule?
A: The value was 99.4348 and 99.7657 and 100.125.

Q: What about the inhibition at 98 µM (SARS-CoV PLpro; Conc 98 µM, read-out: inhibition of SARS-CoV PLpro, UbRh dose-response replicate value) of the same molecule?
A: The inhibition at 98 µM was 98.6%.

Q: What about the inhibition at […] (SARS-CoV PLpro; read-out: inhibition of SARS-CoV PLpro, UbRh dose-response replicate value) of the same molecule?
A: The inhibition at […] was 99.4%.

Q: And the “inhibition of OC43 PLpro, UbRh dose-response replicate value” (OC43 PLpro)?
A: The value was -10.4521 and -4.6612 and -0.2116 and -6.41 and -12.4786 and -1.279 and -4.6859.

Q: What about the “inhibition of OC43 PLpro, UbRh dose-response replicate value” (OC43 PLpro; Conc 98 µM) of the same molecule?
A: Its value is -8.82 and -6.432 and -0.556 and -3.797.

Q: What about the “inhibition of MERS-CoV PLpro, UbRh dose-response replicate value” (MERS-CoV PLpro) of the same molecule?
A: Its value is -8.262 and -6.812 and -8.29 and -8.637 and -10.7207 and -11.1211 and -8.564 and -8.857.

Q: What about the “inhibition of MERS-CoV PLpro, UbRh dose-response replicate value” (MERS-CoV PLpro; Conc 98 µM) of the same molecule?
A: The value was -10.7242 and -11.7377 and -6.2046 and -4.979.

Q: What about the inhibition at 0.545 µM (SARS-CoV-2 PLpro; Conc 0.545 µM, read-out: SARS-CoV-2 PLpro, UbRh dose-response) of the same molecule?
A: Its inhibition at 0.545 µM is 87.3%.

Q: What about the inhibition at 1.63 µM (SARS-CoV-2 PLpro; Conc 1.63 µM, read-out: SARS-CoV-2 PLpro, UbRh dose-response) of the same molecule?
A: The inhibition at 1.63 µM was 96.4%.

Q: And the inhibition at 4.9 µM (SARS-CoV-2 PLpro; Conc 4.9 µM, read-out: SARS-CoV-2 PLpro, UbRh dose-response)?
A: The inhibition at 4.9 µM was 102%.

Q: What about the IC50 (SARS-CoV-2 PLpro; IC50 (UbRh) SARS-CoV-2 PLpro) of the same molecule?
A: Its IC50 is 98 nM.

Q: What about the inhibition at […] (SARS-CoV-2 PLpro; read-out: SARS-CoV-2 PLpro, UbRh dose-response) of the same molecule?
A: The inhibition at […] was 65.3% and 28.1%.

Q: And the IC50 (229E PL2pro)?
A: Its IC50 is 26000 nM.

Q: What about the “inhibition of 229E PL2pro, UbRh dose-response replicate value” (229E PL2pro) of the same molecule?
A: Its value is 46.2136 and 48.684 and 48.4508 and 18.0648 and 22.1853 and 20.9697.

Q: What about the “inhibition of 229E PL2pro, UbRh dose-response replicate value” (229E PL2pro; Conc 98 µM) of the same molecule?
A: Its value is 70.621 and 72.3972 and 73.3316.

Q: And the inhibition at […] (229E PL2pro; read-out: inhibition of 229E PL2pro, UbRh dose-response replicate value)?
A: The inhibition at […] was 44.4% and 18.9%.

Q: What about the inhibition at 98 µM (229E PL2pro; read-out: inhibition of 229E PL2pro, UbRh dose-response replicate value, Conc 98 µM) of the same molecule?
A: The inhibition at 98 µM was 71.9%.
